Test results from patent US6653081B2, “Methods for monitoring antiretroviral therapy and guiding therapeutic decision in the treatment of HIV/AIDS” (ViroLogic, Inc., priority 2000, dated 2003).

Key:
K103N/M230L-RTV = assay: Phenotypic susceptibility assay, K103N/M230L-RTV; format: cell-based, HIV-1; conditions: site-directed K103N + M230L
Source text: (§1) The resistance test vectors containing a functional luciferase gene cassette were constructed and host cells were transfected with the resistance test vector DNA. The resistant test vectors contained patient-derived reverse transcriptase and protease sequences that were either susceptible or resistant to the antiretroviral agents, such as nucleoside reverse transcriptase inhibitors, (NRTIs) non-nucleoside reverse transcriptase inhibitors […] protease inhibitors. The resistance test vector viral particles produced by transfecting the resistance test vector DNA into host cells, either in the presence or absence of PRIs, were used to infect target host cells grown either in the absence of NRTIs or NNRTIs, or in the presence of increasing concentrations of the drug. The amount of luciferase activity produced in infected target host cells in the presence of varying concentrations of drug was compared to the amount of luciferase produced in infected target host cells in the absence of drug. “Drug resistance” was measured as the amount of drug required to inhibit by 50% the luciferase activity detected in the absence of drug (inhibitory concentration 50%, IC50). The IC50 values were determined by plotting percent drug inhibition vs. log10 drug concentration. Stimulation of viral replication was measured as the percent increase in luciferase activity detected when infection occurs in the presence of drug as compared to in the absence of drug.
(§2) Host cells were seeded in 10-cm-diameter dishes and were transfected several days after plating with resistance test vector plasmid DNA and the envelope expression vector. Transfections were performed using a calcium-phosphate precipitation procedure. The cell culture media containing the DNA precipitate was replaced with fresh medium, from one to 24 hours, after transfection. Cell culture media containing resistance test vector viral particles was harvested one to four days after transfection and was passed through a […] filter before being used to infect target host cells, or being stored at −80° C. HIV capsid protein (p24) levels in the harvested cell culture media were determined by an EIA method as described by the manufacturer (SAIC; Frederick, Md.). Before infection, target cells (293 and 293/T) were plated in cell culture media. Control infections were performed using cell culture media from mock transfections (no DNA) or transfections containing the resistance test vector plasmid DNA without the envelope expression plasmid. One to three or more days after infection, the media was removed and cell lysis buffer (Promega) was added to each well. Cell lysates were assayed for luciferase activity (FIG. 3). The inhibitory effect of the drug was determined using the following equation:
(§3) % luciferase inhibition=1−(RLUluc[drug]÷RLUluc)×100
(§4) where RLUluc [drug] is the Relative Light Unit of luciferase activity in infected cells in the presence of drug, and RLUluc is the Relative Light Unit of luciferase activity in infected cells in the absence of drug. IC50values were obtained from the sigmoidal curves that were generated from the data by plotting the percent inhibition of luciferase activity vs. the log10 drug concentration. The percent luciferase stimulation is the negative of the % inhibition calculated using the formula above.
The M230L mutation was tested alone and is described in Example 3 above. A resistance test vector containing the M230L mutation and the K103N mutation (K103N/M230L-RTV) was constructed and tested using the phenotypic assay described earlier, and the results were compared to those determined using a genetically defined resistance test vector that was wild type at positions 103 and 230. We determined the pattern of phenotypic susceptibility to the NNRTIs, delavirdine, nevirapine and efavirenz, in the K103N/M230L-RTV. […]

RTV-1046 and RTV-887 = assay: Phenotypic susceptibility assay, RTV-1046 and RTV-887; format: cell-based, HIV; conditions: patient ARG-014, weeks 8 and 16; Y181C and M230L present
Source text: (§5) The resistance test vectors containing a functional luciferase gene cassette were constructed and host cells were transfected with the resistance test vector DNA. The resistant test vectors contained patient-derived reverse transcriptase and protease sequences that were either susceptible or resistant to the antiretroviral agents, such as nucleoside reverse transcriptase inhibitors, (NRTIs) non-nucleoside reverse transcriptase inhibitors […] protease inhibitors. The resistance test vector viral particles produced by transfecting the resistance test vector DNA into host cells, either in the presence or absence of PRIs, were used to infect target host cells grown either in the absence of NRTIs or NNRTIs, or in the presence of increasing concentrations of the drug. The amount of luciferase activity produced in infected target host cells in the presence of varying concentrations of drug was compared to the amount of luciferase produced in infected target host cells in the absence of drug. […] The IC50 values were determined by plotting percent drug inhibition vs. log10 drug concentration. Stimulation of viral replication was measured as the percent increase in luciferase activity detected when infection occurs in the presence of drug as compared to in the absence of drug.
(§6) Host cells were seeded in 10-cm-diameter dishes and were transfected several days after plating with resistance test vector plasmid DNA and the envelope expression vector. […] HIV capsid protein (p24) levels in the harvested cell culture media were determined by an EIA method as described by the manufacturer (SAIC; Frederick, Md.). […] The inhibitory effect of the drug was determined using the following equation: […]
(§7) where RLUluc [drug] is the Relative Light Unit of luciferase activity in infected cells in the presence of drug, and RLUluc is the Relative Light Unit of luciferase activity in infected cells in the absence of drug. […] The percent luciferase stimulation is the negative of the % inhibition calculated using the formula above. […]

RTV-010835 = assay: Phenotypic susceptibility assay, RTV-010835; format: cell-based, HIV; conditions: patient CCTG-2165, week 15; K103N and M230L present
Source text: as §5, §6, §7

RTV-010829/245V-297E = assay: Phenotypic susceptibility assay, RTV-010829/245V-297E; format: cell-based, HIV; conditions: for drug-dependent stimulation of viral replication: RTV-010829 with V245E to E297K reverted; for reductions in susceptibility compared to wild type control RTV: RTV-010829 with V245E, I270M, V276I, R277K, V292I, V293I, E297K reverted
Source text: as §1, §2, §3, §4
A resistance test vector containing all of the mutations present in RTV-010829 except for the V245E mutation (RTV-010829/245V) was constructed and tested using the phenotypic assay described earlier. The results were compared to those determined using the parent RTV-010829. We determined the pattern of phenotypic susceptibility to the NNRTIs, delavirdine, nevirapine and efavirenz, in the reverted vector RTV-010829/245V. […] A resistance test vector containing all of the mutations present in RTV-010829 except for the I270M (RTV-010829/270I) was constructed and tested using the phenotypic assay described earlier. […]

[1] = system: RTV-1033-3/283L/284R/286T; assay: Phenotypic susceptibility assay, RTV-1033-3/283L/284R/286T; format: cell-based, HIV; conditions: RTV-1033-3 with L283I, R284K and T286A reverted
Source text: as §1, §2, §3, §4
(§8) A resistance test vector containing all of the mutations present in RTV-1033-3 except for L283I, R284K and T286A (RTV-1033-3/283L/284R/286T) was constructed and tested using the phenotypic assay described earlier. The results were compared to those determined using the parent RTV-1033-3. We determined the pattern of phenotypic susceptibility to the NNRTIs, delavirdine, nevirapine and efavirenz, in the reverted vector, RTV-1033-3/283L/284R/286T.

[2] = system: RTV-1033-3/283L/284R/286T/293V/297E; assay: Phenotypic susceptibility assay, RTV-1033-3/283L/284R/286T/293V/297E; format: cell-based, HIV; conditions: RTV-1033-3 with L283I, R284K, T286A, V293I and E297K reverted
Source text: as §1, §2, §3, §4
as §8, with “R284K, T286A, V293I” for “R284K”, “E297K (RTV-1033-3/283L/284R/286T/293V/297E)” for “T286A (RTV-1033-3/283L/284R/286T)”, “RTV-1033-3/283L/284R/286T/293V/297E.” for “RTV-1033-3/283L/284R/286T.”

SMILES | drug-dependent stimulation of viral replication (K103N/M230L-RTV) | reduction in susceptibility compared to wild type control RTV (K103N/M230L-RTV) | decrease in susceptibility (RTV-1046 and RTV-887) | decrease in susceptibility (RTV-010835) | drug-dependent stimulation of viral replication (RTV-010829/245V-297E) | reductions in susceptibility compared to wild type control RTV (RTV-010829/245V-297E) | drug-dependent stimulation of viral replication [1] | reductions in susceptibility compared to wild type control RTV [1] | drug-dependent stimulation of viral replication [2] | reductions in susceptibility compared to wild type control RTV [2]
CC(C)Nc1cccnc1N1CCN(C(=O)c2cc3cc(NS(C)(=O)=O)ccc3[nH]2)CC1 [delavirdine] | ~100% | > 250 fold | > 250 fold | > 250 fold | no drug-dependent stimulation | 198 fold | ~40% | 7 fold | no drug-dependent stimulation | 16 fold
O=C1Nc2ccc(Cl)cc2[C@@](C#CC2CC2)(C(F)(F)F)O1 [efavirenz] | ~40% | > 470 fold | 5 fold | 270 fold | no drug-dependent stimulation | 76 fold | ~30% | 85 fold | no drug-dependent stimulation | 5 fold
Cc1ccnc2c1NC(=O)c1cccnc1N2C1CC1 [nevirapine] | ~70% | > 600 fold | > 600 fold | > 600 fold | no drug-dependent stimulation | 233 fold | ~80% | > 600 fold | no drug-dependent stimulation | 144 fold
